Assays:
Assay in all cases: relative viability (nuclei count vs DMSO), 5 days (fraction); higher = more cells survive
[1] = tested on: 201T
How it was run: (§1)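 Lung cancer cell lines in 1536-well plates were dosed by pin tool the day after seeding, either with one drug alone or with a fixed anchor-drug dose plus five library-drug doses (not always all listed) in √10 steps. After 5 days, cells were fixed and their nuclei stained in one step (final 0.05% Triton X-100, 1% formaldehyde, 1 ug/ml Hoechst), then counted on 4× images. Relative viability is the nuclei count in treated wells divided by that in vehicle wells. Values are medians of duplicate plates.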

[2] = tested on: BEN
How it was run: as §1

[3] = tested on: COR-L 105
How it was run: as §1

[4] = tested on: COR-L23
How it was run: as §1

[5] = tested on: EKVX
How it was run: as §1

[6] = tested on: HARA
How it was run: as §1

[7] = tested on: HCC-15
How it was run: as §1

[8] = tested on: HCC-366
How it was run: as §1

[9] = tested on: HCC-78
How it was run: as §1

[10] = tested on: HCC-827
How it was run: as §1

[11] = tested on: LC-2-ad
How it was run: as §1

[12] = tested on: LU99A
How it was run: as §1

[13] = tested on: LXF-289
How it was run: as §1

[14] = tested on: NCI-H1650
How it was run: as §1

[15] = tested on: NCI-H1734
How it was run: as §1

[16] = tested on: NCI-H1755
How it was run: as §1

[17] = tested on: NCI-H1975
How it was run: as §1

[18] = tested on: NCI-H1993
How it was run: as §1

[19] = tested on: NCI-H3122
How it was run: as §1

[20] = tested on: NCI-H596
How it was run: as §1

[21] = tested on: RERF-LC-KJ
How it was run: as §1

[22] = tested on: SK-LU-1
How it was run: as §1

Compound: Cc1cnc(-c2cnc(NCCNc3ccc(C#N)cn3)nc2-c2ccc(Cl)cc2Cl)[nH]1 + CC(C)C[C@H](NC(=O)[C@H](Cc1ccccc1)NC(=O)c1cnccn1)B(O)O [Bortezomib] (partner 0.002 µM)
- relative viability ([1]; first compound 0.08 µM): 1.12
- relative viability ([1]; first compound 0.253 µM): 0.973
- relative viability ([1]; first compound 0.8 µM): 1.14
- relative viability ([1]; first compound 2.53 µM): 1.1
- relative viability ([2]; first compound 0.08 µM): 0.623
- relative viability ([2]; first compound 0.253 µM): 0.786
- relative viability ([2]; first compound 0.8 µM): 0.725
- relative viability ([2]; first compound 2.53 µM): 0.797
- relative viability ([3]; first compound 0.08 µM): 0.898
- relative viability ([3]; first compound 0.253 µM): 0.754
- relative viability ([3]; first compound 0.8 µM): 0.62
- relative viability ([3]; first compound 2.53 µM): 0.445
- relative viability ([4]; first compound 0.08 µM): 1.04
- relative viability ([4]; first compound 0.253 µM): 0.997
- relative viability ([4]; first compound 0.8 µM): 1.14
- relative viability ([4]; first compound 2.53 µM): 0.943
- relative viability ([5]; first compound 0.08 µM): 0.93
- relative viability ([5]; first compound 0.253 µM): 0.948
- relative viability ([5]; first compound 0.8 µM): 0.975
- relative viability ([5]; first compound 2.53 µM): 0.961
- relative viability ([6]; first compound 0.08 µM): 1.05
- relative viability ([6]; first compound 0.253 µM): 1.09
- relative viability ([6]; first compound 0.8 µM): 1.08
- relative viability ([6]; first compound 2.53 µM): 1.08
- relative viability ([7]; first compound 0.08 µM): 1.01
- relative viability ([7]; first compound 0.253 µM): 0.575
- relative viability ([7]; first compound 0.8 µM): 1
- relative viability ([7]; first compound 2.53 µM): 0.969
- relative viability ([8]; first compound 0.08 µM): 1.09
- relative viability ([8]; first compound 0.253 µM): 0.989
- relative viability ([8]; first compound 0.8 µM): 0.967
- relative viability ([8]; first compound 2.53 µM): 1.01
- relative viability ([9]; first compound 0.08 µM): 0.645
- relative viability ([9]; first compound 0.253 µM): 0.457
- relative viability ([9]; first compound 0.8 µM): 0.443
- relative viability ([9]; first compound 2.53 µM): 0.41
- relative viability ([10]; first compound 0.08 µM): 1.01
- relative viability ([10]; first compound 0.8 µM): 0.877
- relative viability ([10]; first compound 2.53 µM): 1.07
- relative viability ([11]; first compound 0.08 µM): 1.19
- relative viability ([11]; first compound 0.8 µM): 1.04
- relative viability ([11]; first compound 2.53 µM): 0.855
- relative viability ([12]; first compound 0.08 µM): 1.27
- relative viability ([12]; first compound 0.253 µM): 1.12
- relative viability ([12]; first compound 0.8 µM): 1.29
- relative viability ([12]; first compound 2.53 µM): 1.18
- relative viability ([13]; first compound 0.08 µM): 1.04
- relative viability ([13]; first compound 0.253 µM): 0.946
- relative viability ([13]; first compound 0.8 µM): 1.09
- relative viability ([13]; first compound 2.53 µM): 1.11
- relative viability ([14]; first compound 0.08 µM): 0.207
- relative viability ([14]; first compound 0.253 µM): 0.214
- relative viability ([14]; first compound 0.8 µM): 0.24
- relative viability ([14]; first compound 2.53 µM): 0.207
- relative viability ([15]; first compound 0.08 µM): 0.942
- relative viability ([15]; first compound 0.253 µM): 0.897
- relative viability ([15]; first compound 0.8 µM): 0.87
- relative viability ([15]; first compound 2.53 µM): 0.734
- relative viability ([16]; first compound 0.08 µM): 1.02
- relative viability ([16]; first compound 0.253 µM): 0.889
- relative viability ([16]; first compound 0.8 µM): 0.828
- relative viability ([16]; first compound 2.53 µM): 0.994
- relative viability ([17]; first compound 0.08 µM): 0.412
- relative viability ([17]; first compound 0.253 µM): 0.391
- relative viability ([17]; first compound 0.8 µM): 0.425
- relative viability ([17]; first compound 2.53 µM): 0.328
- relative viability ([18]; first compound 0.08 µM): 1.23
- relative viability ([18]; first compound 0.253 µM): 1.07
- relative viability ([18]; first compound 0.8 µM): 1.1
- relative viability ([18]; first compound 2.53 µM): 1.26
- relative viability ([19]; first compound 0.08 µM): 1.03
- relative viability ([19]; first compound 0.253 µM): 0.925
- relative viability ([19]; first compound 0.8 µM): 0.997
- relative viability ([19]; first compound 2.53 µM): 0.972
- relative viability ([20]; first compound 0.08 µM): 1.19
- relative viability ([20]; first compound 0.253 µM): 0.802
- relative viability ([20]; first compound 0.8 µM): 1.09
- relative viability ([20]; first compound 2.53 µM): 1.12
- relative viability ([21]; first compound 0.08 µM): 1.27
- relative viability ([21]; first compound 0.253 µM): 1
- relative viability ([21]; first compound 0.8 µM): 0.804
- relative viability ([21]; first compound 2.53 µM): 0.931
- relative viability ([22]; first compound 0.08 µM): 1.26
- relative viability ([22]; first compound 0.253 µM): 0.993
- relative viability ([22]; first compound 0.8 µM): 1.34
- relative viability ([22]; first compound 2.53 µM): 1.13
